Test results reported in US10508085B2, “Compounds and methods for IDO and TDO modulation, and indications therefor” (Plexxikon Inc., priority 2016, dated 2019).

Experiments:
[1] = target: T1, Human Indoleamine 2,3-dioxygenase (IDO) (Homo sapiens, UniProt P14902); test: Human IDO enzymatic assay (kynurenine level); format: biochemical; details: 6 nM IDO, 10 μM L-Trp; geometric mean; read-out: IDO1 GMean: IC50 (μM) (Biochemical Assay)
T1 construct: His tag (N); made in house; host or cells: E. coli
T1 sequence (P14902 whole entry): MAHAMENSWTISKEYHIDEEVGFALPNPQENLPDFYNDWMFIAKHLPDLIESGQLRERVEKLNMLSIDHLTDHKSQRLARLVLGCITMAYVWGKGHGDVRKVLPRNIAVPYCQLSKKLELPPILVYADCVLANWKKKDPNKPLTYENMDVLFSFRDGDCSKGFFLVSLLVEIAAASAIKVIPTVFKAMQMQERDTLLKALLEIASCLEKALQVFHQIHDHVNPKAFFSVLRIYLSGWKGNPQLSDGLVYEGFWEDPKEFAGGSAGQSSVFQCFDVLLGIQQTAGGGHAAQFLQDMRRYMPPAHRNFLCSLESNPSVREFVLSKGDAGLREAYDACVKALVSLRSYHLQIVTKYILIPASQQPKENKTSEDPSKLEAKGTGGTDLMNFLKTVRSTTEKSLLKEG
How it was run: (§1)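 Compound is mixed with His-tagged enzyme from E. coli in pH 6.5 phosphate buffer containing ascorbate, methylene blue and catalase, at room temperature. IDO uses 6 nM enzyme and 10 μM Trp for 20 min. TDO uses 1 nM enzyme and 350 μM Trp for 70 min. TCA stops the reaction, and IC50 is derived from kynurenine levels.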

[2] = target: T2, human IDO (IDO1-expressing HEK293 cells) (Homo sapiens, UniProt P14902); test: Cell based kynurenine assay, IDO1-expressing HEK293 cell clones; details: IDO1-expressing HEK293 cells, 24 hours, geometric mean; read-out: HEK293 IDO1 Kynurenine GMean IC50 (μM) (Cellular Assay)
T2 construct: expressed in transfected cells
T2 sequence (P14902 whole entry): as above
How it was run: (§2)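 HEK293 stable clones (hIDO1 or hTDO, CMV-driven; G418-selected); 2.5×10^4 cells/well; compound serial dilution, 24 h, 37 °C, 5% CO2; supernatant kynurenine; IC50 by nonlinear fit.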

[3] = target: T3, Human Tryptophan 2,3-dioxygenase (TDO) (Homo sapiens, UniProt P48775); test: Human TDO enzymatic assay (kynurenine level); format: biochemical; details: 1 nM TDO, 350 μM L-Trp; geometric mean; read-out: TDO GMean: IC50 (μM) (Biochemical Assay)
T3 construct: His tag (N); made in house; host or cells: E. coli
T3 sequence (P48775 whole entry): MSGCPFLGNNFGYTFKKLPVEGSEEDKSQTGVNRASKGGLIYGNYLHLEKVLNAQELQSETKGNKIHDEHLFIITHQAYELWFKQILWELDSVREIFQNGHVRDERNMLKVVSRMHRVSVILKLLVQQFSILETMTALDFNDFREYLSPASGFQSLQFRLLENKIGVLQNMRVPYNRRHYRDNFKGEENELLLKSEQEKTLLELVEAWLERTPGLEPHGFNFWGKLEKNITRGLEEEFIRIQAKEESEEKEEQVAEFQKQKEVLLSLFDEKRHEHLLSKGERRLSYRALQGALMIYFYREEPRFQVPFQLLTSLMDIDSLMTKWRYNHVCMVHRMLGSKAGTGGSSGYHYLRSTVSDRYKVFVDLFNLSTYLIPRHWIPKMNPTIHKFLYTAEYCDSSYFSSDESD
How it was run: as §1

[4] = target: T4, human TDO (TDO-expressing HEK293 cells) (Homo sapiens, UniProt P48775); test: Cell based kynurenine assay, TDO-expressing HEK293 cell clones; details: TDO-expressing HEK293 cells, 24 hours, geometric mean; read-out: HEK293 TDO Kynurenine GMean IC50 (μM) (Cellular Assay)
T4 construct: expressed in transfected cells
T4 sequence (P48775 whole entry): as above
How it was run: as §2

IC50 [1] [µM]	IC50 [2] [µM]	IC50 [3] [µM]	IC50 [4] [µM]	Compound
0.0001 to 10	0.0001 to 10	0.0001 to 10	0.0001 to 10	CC(=O)N1CCC(C(C)(C)[C@H](O)c2cc(Cl)cc3cn[nH]c23)CC1 [Compound P-0542, (S)-1-(4-(1-(5-chloro-1H-indazol-7-yl)-1-hydroxy-2-methylpropan-2-yl)piperidin-1-yl)ethan-1-one]
0.0001 to 10	0.0001 to 10	0.0001 to 10	0.0001 to 10	CC(C)(C1CCN(C(=O)c2ccc(Cl)cn2)CC1)[C@H](O)c1cc(Cl)cc2cn[nH]c12 [Compound P-0548, (S)-(4-(1-(5-chloro-1H-indazol-7-yl)-1-hydroxy-2-methylpropan-2-yl)piperidin-1-yl)(5-chloropyridin-2-yl)methanone]
0.0001 to 10	0.0001 to 10	0.0001 to 10	0.0001 to 10	CCNC(=O)N1CCC(C(C)(C)[C@H](O)c2cc(Cl)cc3cn[nH]c23)CC1 [Compound P-0550, (S)-4-(1-(5-chloro-1H-indazol-7-yl)-1-hydroxy-2-methylpropan-2-yl)-N-ethylpiperidine-1-carboxamide]
0.0001 to 10	0.0001 to 10	0.0001 to 10	0.0001 to 10	CC(C)(C1CCN(C(=O)Nc2cccnc2)CC1)[C@H](O)c1cc(Cl)cc2cn[nH]c12 [Compound P-0554, (S)-4-(1-(5-chloro-1H-indazol-7-yl)-1-hydroxy-2-methylpropan-2-yl)-N-(pyridin-3-yl)piperidine-1-carboxamide]
0.0001 to 10	0.0001 to 10	0.0001 to 10	0.0001 to 10	CC(C)(C1CCN(C(=O)Nc2ccc(F)nc2)CC1)C(O)c1cc(Cl)cc2cn[nH]c12 (centres unmarked) [Compound P-0558, 4-(1-(5-chloro-1H-indazol-7-yl)-1-hydroxy-2-methylpropan-2-yl)-N-(6-fluoropyridin-3-yl)piperidine-1-carboxamide]
0.0001 to 10	0.0001 to 10	0.0001 to 10	0.0001 to 10	CC(C)(C1CCN(C(=O)Nc2ccc(F)nc2)CC1)[C@H](O)c1cc(Cl)cc2cn[nH]c12 [Compound P-0559, (S)-4-(1-(5-chloro-1H-indazol-7-yl)-1-hydroxy-2-methylpropan-2-yl)-N-(6-fluoropyridin-3-yl)piperidine-1-carboxamide]
0.0001 to 10	0.0001 to 10	0.0001 to 10	0.0001 to 10	CC(C)(C1CCN(C(=O)Nc2ccccc2)CC1)[C@H](O)c1cc(Cl)cc2cn[nH]c12 [Compound P-0563, (S)-4-(1-(5-chloro-1H-indazol-7-yl)-1-hydroxy-2-methylpropan-2-yl)-N-phenylpiperidine-1-carboxamide]

More lines, now with the values behind:

Compound	IC50 [1] [µM]	IC50 [2] [µM]	IC50 [3] [µM]	IC50 [4] [µM]
CCCC(=O)N1CCC(C(C)(C)[C@H](O)c2cc(Cl)cc3cn[nH]c23)CC1 [Compound P-0543, (S)-1-(4-(1-(5-chloro-1H-indazol-7-yl)-1-hydroxy-2-methylpropan-2-yl)piperidin-1-yl)butan-1-one]	0.0001 to 10	0.0001 to 10	0.0001 to 10	0.0001 to 10
CC(C)C(=O)N1CCC(C(C)(C)[C@H](O)c2cc(Cl)cc3cn[nH]c23)CC1 [Compound P-0544, (S)-1-(4-(1-(5-chloro-1H-indazol-7-yl)-1-hydroxy-2-methylpropan-2-yl)piperidin-1-yl)-2-methylpropan-1-one]	0.0001 to 10	0.0001 to 10	0.0001 to 10	0.0001 to 10
CC(C)CC(=O)N1CCC(C(C)(C)[C@H](O)c2cc(Cl)cc3cn[nH]c23)CC1 [Compound P-0545, (S)-1-(4-(1-(5-chloro-1H-indazol-7-yl)-1-hydroxy-2-methylpropan-2-yl)piperidin-1-y1)-3-methylbutan-1-one]	0.0001 to 10	0.0001 to 10	0.0001 to 10	0.0001 to 10
CC(C)(C1CCN(C(=O)C2CCOCC2)CC1)[C@H](O)c1cc(Cl)cc2cn[nH]c12 [Compound P-0546, (S)-(4-(1-(5-chloro-1H-indazol-7-yl)-1-hydroxy-2-methylpropan-2-yl)piperidin-1-yl)(tetrahydro-2H-pyran-4-yl)methanone]	0.0001 to 10	0.0001 to 10	0.0001 to 10	0.0001 to 10
CN(C)CC(=O)N1CCC(C(C)(C)[C@H](O)c2cc(Cl)cc3cn[nH]c23)CC1 [Compound P-0547, (S)-1-(4-(1-(5-chloro-1H-indazol-7-yl)-1-hydroxy-2-methylpropan-2-yl)piperidin-1-yl)-2-(dimethylamino) ethan-1-one]	0.0001 to 10	0.0001 to 10	0.0001 to 10	0.0001 to 10
CC(C)(C1CCN(C(=O)NC2CC2)CC1)[C@H](O)c1cc(Cl)cc2cn[nH]c12 [Compound P-0551, (S)-4-(1-(5-chloro-1H-indazol-7-yl)-1-hydroxy-2-methylpropan-2-yl)-N-cyclopropylpiperidine-1-carboxamide]	0.0001 to 10	0.0001 to 10	0.0001 to 10	0.0001 to 10
CC(C)(C1CCN(C(=O)NC2CCC2)CC1)[C@H](O)c1cc(Cl)cc2cn[nH]c12 [Compound P-0552, (S)-4-(1-(5-chloro-1H-indazol-7-yl)-1-hydroxy-2-methylpropan-2-yl)-N-cyclobutylpiperidine-1-carboxamide]	0.0001 to 10	0.0001 to 10	0.0001 to 10	0.0001 to 10
COCCCNC(=O)N1CCC(C(C)(C)[C@H](O)c2cc(Cl)cc3cn[nH]c23)CC1 [Compound P-0553, (S)-4-(1-(5-chloro-1H-indazol-7-yl)-1-hydroxy-2-methylpropan-2-yl)-N-(3-methoxypropyl) piperidine-1-carboxamide]	0.0001 to 10	0.0001 to 10	0.0001 to 10	0.0001 to 10
CC(C)(C1CCN(C(=O)NC(=O)c2ccccc2)CC1)[C@H](O)c1cc(Cl)cc2cn[nH]c12 [Compound P-0555, (S)-N-benzoyl-4-(1-(5-chloro-1H-indazol-7-yl)-1-hydroxy-2-methylpropan-2-yl)piperidine-1-carboxamide]	0.0001 to 10	0.0001 to 10	0.0001 to 10	0.0001 to 10
CC(C)(C1CCN(C(=O)NCCS(C)(=O)=O)CC1)[C@H](O)c1cc(Cl)cc2cn[nH]c12 [Compound P-0556, (S)-4-(1-(5-chloro-1H-indazol-7-yl)-1-hydroxy-2-methylpropan-2-yl)-N-(2-(methylsulfonyl)ethyl)piperidine-1-carboxamide]	0.0001 to 10	0.0001 to 10	0.0001 to 10	0.0001 to 10
CCS(=O)(=O)N1CCC(C(C)(C)[C@H](O)c2cc(Cl)cc3cn[nH]c23)CC1 [Compound P-0557, (S)-1-(5-chloro-1H-indazol-7-yl)-2-(1-(ethylsulfonyl)piperidin-4-yl)-2-methylpropan-1-ol]	0.0001 to 10	0.0001 to 10	0.0001 to 10	0.0001 to 10
CC(C)(C1CCN(C(=O)NCC2CC2)CC1)[C@H](O)c1cc(Cl)cc2cn[nH]c12 [Compound P-0560, (S)-4-(1-(5-chloro-1H-indazol-7-yl)-1-hydroxy-2-methylpropan-2-yl)-N-(cyclopropylmethyl) piperidine-1-carboxamide]	0.0001 to 10	0.0001 to 10	0.0001 to 10	0.0001 to 10
CC(C)(C1CCN(C(=O)NCCC(F)(F)F)CC1)[C@H](O)c1cc(Cl)cc2cn[nH]c12 [Compound P-0561, (S)-4-(1-(5-chloro-1H-indazol-7-yl)-1-hydroxy-2-methylpropan-2-yl)-N-(3,3,3-trifluoropropyl) piperidine-1-carboxamide]	0.0001 to 10	0.0001 to 10	0.0001 to 10	0.0001 to 10
CC(C)(C1CCN(C(=O)NCC(F)(F)F)CC1)[C@H](O)c1cc(Cl)cc2cn[nH]c12 [Compound P-0562, (S)-4-(1-(5-chloro-1H-indazol-7-yl)-1-hydroxy-2-methylpropan-2-yl)-N-(2,2,2-trifluoroethyl) piperidine-1-carboxamide]	0.0001 to 10	0.0001 to 10	0.0001 to 10	0.0001 to 10
CC(C)CNC(=O)N1CCC(C(C)(C)[C@H](O)c2cc(Cl)cc3cn[nH]c23)CC1 [Compound P-0564, (S)-4-(1-(5-chloro-1H-indazol-7-yl)-1-hydroxy-2-methylpropan-2-yl)-N-isobutylpiperidine-1-carboxamide]	0.0001 to 10	0.0001 to 10	0.0001 to 10	0.0001 to 10
CC(C)(C1CCN(C(=O)NC[C@H]2CCCO2)CC1)[C@H](O)c1cc(Cl)cc2cn[nH]c12 [Compound P-0565, 4-((S)-1-(5-chloro-1H-indazol-7-yl)-1-hydroxy-2-methylpropan-2-yl)-N-(((R)-tetrahydrofuran-2-yl)methyl)piperidine-1-carboxamide]	0.0001 to 10	0.0001 to 10	0.0001 to 10	0.0001 to 10
